From patent publication US20030199581A1, “Boswellin compositions enhanced with 3-beta-acetyl-11-keto-beta-boswellic acid ("AKBA") industrial manufacture and uses” (priority 2002, published 2003)
Like-named read-outs stand apart in the source and are kept apart here.

Experiments:
PC-3 (prostate cancer) = assay: 3-day MTT assay, PC-3 cells; assay type: cell-based, human
Procedure: The IC50s were determined using a standard MTT assay using CEM (lymphoblastic leukemia), Du 145 (prostate cancer), PC-3 (prostate cancer), LNCaP (prostate cancer), Sk-MEL2 (human melanoma), P388D1 (murine leukemia), K562 (human mycloid leukemia), A549 (human lung cancer), MCF-7 (human breast cancer), B16F (murine melanoma) cancer cell lines (Table 2). […] DU145, PC-3 and CEM cells in culture we studied to determine whether other natural products have synergistic effects with AKBA enriched boswellin. Methods for culturing the cells are described above in Example 6. To different samples of cells, we added AKBA enriched boswellin in concentrations from 0 to 120 μg/ml, resveratrol in concentrations from 0 to 3125 ng/ml, baicalin in concentrations from 0 to 3125 ng/ml and licochalcone A in concentrations from 0 to 800 μg/ml. In analogous concentrations combinations of AKBA enriched boswellin and resveratrol, baicalin and licochalcone A were studied. Cell survival was measured using the MTT assay described above.

DU145 (prostate cancer) = assay: 3-day MTT assay, DU145 cells; assay type: cell-based, human; settings: DU145, 195 ng/ml phytochemical alone
Procedure: (§1) Biological activities of the materials produced as described in Examples 1 to 5 were determined using cultured cells. The IC50s of Boswellin (“BA1”), AKBA enriched peracetylated boswellin (“BA2”) and AKBA enriched boswellin (“BA3”) in various human and murine prostate, leukemia, melanoma, lung and breast cancer cell lines were determined. The IC50s were determined using a standard MTT assay using CEM (lymphoblastic leukemia), Du 145 (prostate cancer), PC-3 (prostate cancer), LNCaP (prostate cancer), Sk-MEL2 (human melanoma), P388D1 (murine leukemia), K562 (human mycloid leukemia), A549 (human lung cancer), MCF-7 (human breast cancer), B16F (murine melanoma) cancer cell lines (Table 2).
(§2) DU145, PC-3 and CEM cells in culture we studied to determine whether other natural products have synergistic effects with AKBA enriched boswellin. Methods for culturing the cells are described above in Example 6. To different samples of cells, we added AKBA enriched boswellin in concentrations from 0 to 120 μg/ml, resveratrol in concentrations from 0 to 3125 ng/ml, baicalin in concentrations from 0 to 3125 ng/ml and licochalcone A in concentrations from 0 to 800 μg/ml. In analogous concentrations combinations of AKBA enriched boswellin and resveratrol, baicalin and licochalcone A were studied. Cell survival was measured using the MTT assay described above.

[1] = test system: CEM (lymphoblastic leukemia); assay: 3-day MTT assay, CEM cells; assay type: cell-based, human; settings: 195 ng/ml phytochemical alone
Procedure: as §1, §2

LNCaP cells = assay: Growth inhibition by cell counting, LNCaP cells; assay type: cell-based; settings: Homo sapiens, 100 μg/ml, read-out: growth inhibition as compared to controls
Procedure: DU145 and LNCaP cells were obtained from ATCC. The cells were grown in Eagle's MEM supplemented with 1 mM sodium pyruvate, 0.1 mM glutamine, 1.5 g/l sodium bicarbonate, and 10% fetal bovine serum. A confluent plate of cells contained approximately 2×10^6 DU145cells and 10^6 LNCaP cells.
The test drug dissolved in DMSO at a concentration of 100 mg/ml was added to 6 test plates and to control plates. Two control and two drug plates each were harvested with addition of 1 ml/plate of trypsin-EDTA at 24, 48, and 72 hrs and counted by […]. The trypsinized plates were incubated for 3 min at 37° C., and 5 ml DMEM was added to each plate. Cells were collected in 15 ml tubes, and 2 ml of each cell suspension was added to 20 ml Isoton and counted.

Structure (SMILES): C=CC(C)(C)c1cc(/C=C/C(=O)c2ccc(O)cc2)c(OC)cc1O [licochalcone A]
- % cell survival (conc. phytochemical) (PC-3 (prostate cancer); PC-3, 3.1 μg/ml phytochemical alone): 98 (3.1 μg/ml licochalcone A) %

Structure (SMILES): O=C(O)[C@H]1O[C@@H](Oc2cc3oc(-c4ccccc4)cc(=O)c3c(O)c2O)[C@H](O)[C@@H](O)[C@@H]1O [baicalin]
- % cell survival (conc. phytochemical) (PC-3 (prostate cancer); PC-3, 12 ng/ml phytochemical alone): 93 (12 ng/ml baicalin) %
- % cell survival (conc. phytochemical) (DU145 (prostate cancer)): 78 (195 ng/ml baicalin) %
- % cell survival (conc. phytochemical) [1]: 85 (195 ng/ml baicalin) %

Structure (SMILES): Oc1ccc(C=Cc2cc(O)cc(O)c2)cc1 [resveratrol]
- % cell survival (conc. phytochemical) (DU145 (prostate cancer)): 89 (195 ng/ml resveratrol) %
- % cell survival (conc. phytochemical) [1]: 85 (195 ng/ml resveratrol) %

Structure (SMILES): O=c1c(-c2ccc(O)cc2)coc2cc(O)cc(O)c12 [Genistein]
- inhibition at 100 µg/mL (LNCaP cells; 24 h): 32%
- inhibition at 100 µg/mL (LNCaP cells; 48 h): 49.4%
- inhibition at 100 µg/mL (LNCaP cells; 72 h): 60.8%
